Among the data in ChEMBL document CHEMBL5291721, “A preclinical secondary pharmacology resource illuminates target-adverse drug reaction associations of marketed drugs” (Nat Commun, 2023) are AC50 values, retold here.

A value given as a limit tells only on which side of the number the result lay.

The target of experiment [1] is Kappa-type opioid receptor (Homo sapiens, UniProt P41145).
Experiment [2] has as its target T1, 5-hydroxytryptamine receptor 1A (Homo sapiens, UniProt P08908).
T1 sequence (P08908 whole entry): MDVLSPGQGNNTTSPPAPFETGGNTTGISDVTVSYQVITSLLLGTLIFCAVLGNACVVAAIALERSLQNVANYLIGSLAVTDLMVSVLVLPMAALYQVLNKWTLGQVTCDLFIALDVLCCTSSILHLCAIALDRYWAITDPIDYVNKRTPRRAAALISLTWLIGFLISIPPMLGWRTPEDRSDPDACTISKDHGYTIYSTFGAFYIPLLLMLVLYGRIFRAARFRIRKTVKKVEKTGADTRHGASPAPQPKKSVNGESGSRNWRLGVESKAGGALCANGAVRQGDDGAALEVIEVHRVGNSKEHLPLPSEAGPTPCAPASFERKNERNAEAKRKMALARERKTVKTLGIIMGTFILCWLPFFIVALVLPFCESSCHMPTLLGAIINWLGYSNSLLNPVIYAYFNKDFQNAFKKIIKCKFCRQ
Format: functional, cell-based.

The target of experiment [3] is T2, Equilibrative nucleoside transporter 1 (Homo sapiens, UniProt Q99808).
T2 sequence (Q99808 whole entry): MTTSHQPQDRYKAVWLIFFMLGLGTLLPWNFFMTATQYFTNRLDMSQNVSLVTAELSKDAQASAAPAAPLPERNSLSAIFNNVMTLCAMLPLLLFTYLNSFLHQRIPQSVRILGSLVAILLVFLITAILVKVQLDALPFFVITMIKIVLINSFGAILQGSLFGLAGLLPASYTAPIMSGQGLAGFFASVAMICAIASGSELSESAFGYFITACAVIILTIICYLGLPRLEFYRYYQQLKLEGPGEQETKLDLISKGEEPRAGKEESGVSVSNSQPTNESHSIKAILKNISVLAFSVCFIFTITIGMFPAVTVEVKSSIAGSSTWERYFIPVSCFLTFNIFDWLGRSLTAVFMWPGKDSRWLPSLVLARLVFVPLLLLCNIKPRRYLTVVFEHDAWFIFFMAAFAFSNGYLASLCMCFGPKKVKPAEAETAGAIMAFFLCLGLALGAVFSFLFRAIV

The target in experiment [4] is D(3) dopamine receptor (Homo sapiens, UniProt P35462).
For experiment [5], the target named is T3, Cholecystokinin receptor type A (Homo sapiens, UniProt P32238).
T3 sequence (P32238 whole entry): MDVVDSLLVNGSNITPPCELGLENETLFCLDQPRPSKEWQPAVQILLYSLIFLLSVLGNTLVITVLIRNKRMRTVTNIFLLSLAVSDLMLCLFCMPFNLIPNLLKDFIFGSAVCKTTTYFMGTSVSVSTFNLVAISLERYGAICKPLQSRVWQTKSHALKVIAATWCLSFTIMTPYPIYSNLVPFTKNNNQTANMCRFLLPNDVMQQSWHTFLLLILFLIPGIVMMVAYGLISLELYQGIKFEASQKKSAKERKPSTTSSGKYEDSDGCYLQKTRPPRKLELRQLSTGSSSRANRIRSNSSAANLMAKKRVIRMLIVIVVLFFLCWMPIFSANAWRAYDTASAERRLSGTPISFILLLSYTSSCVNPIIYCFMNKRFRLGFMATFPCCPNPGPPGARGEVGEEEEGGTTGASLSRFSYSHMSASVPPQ

Experiment [6] deals with T1, 5-hydroxytryptamine receptor 1A. It counts as functional, cell-based. The source holds these as a separate data set.
Experiment [7] concerns the target T4, Alpha-2C adrenergic receptor (Homo sapiens, UniProt P18825).
T4 sequence (P18825 whole entry): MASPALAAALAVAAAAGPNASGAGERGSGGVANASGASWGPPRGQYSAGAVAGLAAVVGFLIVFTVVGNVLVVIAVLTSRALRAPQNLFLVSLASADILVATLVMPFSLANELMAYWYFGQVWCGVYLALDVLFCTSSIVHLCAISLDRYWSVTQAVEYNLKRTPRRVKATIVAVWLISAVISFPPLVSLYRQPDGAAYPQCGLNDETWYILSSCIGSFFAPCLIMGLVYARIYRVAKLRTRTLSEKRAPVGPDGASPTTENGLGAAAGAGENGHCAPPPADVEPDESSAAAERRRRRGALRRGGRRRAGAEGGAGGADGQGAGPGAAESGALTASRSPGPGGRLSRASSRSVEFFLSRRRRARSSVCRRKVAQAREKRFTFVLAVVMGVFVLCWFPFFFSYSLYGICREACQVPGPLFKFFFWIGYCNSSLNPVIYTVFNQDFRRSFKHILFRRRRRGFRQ
It counts as functional.

The target of experiment [8] is Neuronal acetylcholine receptor subunit alpha-4 (Homo sapiens, UniProt P43681).
Experiment [9] addresses T5, Alpha-2A adrenergic receptor (Homo sapiens, UniProt P08913).
T5 sequence (P08913 whole entry): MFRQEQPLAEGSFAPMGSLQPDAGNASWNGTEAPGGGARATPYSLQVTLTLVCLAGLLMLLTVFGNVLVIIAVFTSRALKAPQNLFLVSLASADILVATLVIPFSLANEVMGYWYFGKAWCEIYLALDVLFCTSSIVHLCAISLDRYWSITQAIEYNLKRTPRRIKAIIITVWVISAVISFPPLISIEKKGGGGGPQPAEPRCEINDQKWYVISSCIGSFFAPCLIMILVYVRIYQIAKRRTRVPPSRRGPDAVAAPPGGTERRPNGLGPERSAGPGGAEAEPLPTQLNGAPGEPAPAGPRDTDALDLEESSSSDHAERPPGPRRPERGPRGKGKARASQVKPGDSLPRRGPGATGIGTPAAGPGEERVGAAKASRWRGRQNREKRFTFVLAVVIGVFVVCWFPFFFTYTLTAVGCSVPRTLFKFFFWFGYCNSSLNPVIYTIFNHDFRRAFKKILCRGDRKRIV
It counts as functional, cell-based.

In experiment [10] the target is T6, Adenosine receptor A3 (Homo sapiens, UniProt P0DMS8).
T6 sequence (P0DMS8 whole entry): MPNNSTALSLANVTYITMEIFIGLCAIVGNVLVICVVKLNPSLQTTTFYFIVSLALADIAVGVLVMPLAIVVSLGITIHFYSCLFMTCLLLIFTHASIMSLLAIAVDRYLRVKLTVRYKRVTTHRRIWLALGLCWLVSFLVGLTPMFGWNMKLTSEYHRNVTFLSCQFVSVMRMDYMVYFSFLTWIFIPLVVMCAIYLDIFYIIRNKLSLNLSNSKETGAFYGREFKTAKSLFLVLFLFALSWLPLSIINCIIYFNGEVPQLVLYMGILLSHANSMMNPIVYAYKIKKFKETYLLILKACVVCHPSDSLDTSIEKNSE

The target of experiment [11] is Vasopressin V2 receptor (Homo sapiens, UniProt P30518).
Experiment [12] addresses Cannabinoid receptor 1 (Homo sapiens, UniProt P21554). It counts as functional, cell-based.
Further: assay procedure not described here.

Sequence of Neuronal acetylcholine receptor subunit alpha-4 (P43681 whole entry): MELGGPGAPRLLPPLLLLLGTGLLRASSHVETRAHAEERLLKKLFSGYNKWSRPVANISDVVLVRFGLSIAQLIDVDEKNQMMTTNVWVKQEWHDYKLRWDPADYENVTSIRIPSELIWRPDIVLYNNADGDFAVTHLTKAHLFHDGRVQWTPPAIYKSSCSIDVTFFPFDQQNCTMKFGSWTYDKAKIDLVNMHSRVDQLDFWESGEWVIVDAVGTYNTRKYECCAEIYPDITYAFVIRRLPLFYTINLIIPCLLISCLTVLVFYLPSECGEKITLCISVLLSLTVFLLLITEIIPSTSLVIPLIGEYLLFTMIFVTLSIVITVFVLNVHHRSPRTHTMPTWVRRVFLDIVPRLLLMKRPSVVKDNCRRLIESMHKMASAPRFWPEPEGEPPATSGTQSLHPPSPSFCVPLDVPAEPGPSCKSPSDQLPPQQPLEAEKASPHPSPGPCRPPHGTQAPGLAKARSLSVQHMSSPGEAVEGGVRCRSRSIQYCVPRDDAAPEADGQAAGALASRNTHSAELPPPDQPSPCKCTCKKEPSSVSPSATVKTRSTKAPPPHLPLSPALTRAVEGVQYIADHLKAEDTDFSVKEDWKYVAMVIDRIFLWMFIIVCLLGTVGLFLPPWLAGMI
Sequence of Vasopressin V2 receptor (P30518 whole entry): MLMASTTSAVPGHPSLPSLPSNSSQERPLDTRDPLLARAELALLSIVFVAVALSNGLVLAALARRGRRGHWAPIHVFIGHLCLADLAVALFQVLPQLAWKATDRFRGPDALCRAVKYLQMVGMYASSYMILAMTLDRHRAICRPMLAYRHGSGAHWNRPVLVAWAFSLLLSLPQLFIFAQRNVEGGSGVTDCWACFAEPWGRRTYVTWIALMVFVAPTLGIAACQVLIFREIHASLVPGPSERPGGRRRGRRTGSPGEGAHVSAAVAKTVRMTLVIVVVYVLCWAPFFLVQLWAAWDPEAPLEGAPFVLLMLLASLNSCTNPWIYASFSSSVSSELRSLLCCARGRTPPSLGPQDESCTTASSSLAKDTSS
Sequence of Cannabinoid receptor 1 (P21554 whole entry): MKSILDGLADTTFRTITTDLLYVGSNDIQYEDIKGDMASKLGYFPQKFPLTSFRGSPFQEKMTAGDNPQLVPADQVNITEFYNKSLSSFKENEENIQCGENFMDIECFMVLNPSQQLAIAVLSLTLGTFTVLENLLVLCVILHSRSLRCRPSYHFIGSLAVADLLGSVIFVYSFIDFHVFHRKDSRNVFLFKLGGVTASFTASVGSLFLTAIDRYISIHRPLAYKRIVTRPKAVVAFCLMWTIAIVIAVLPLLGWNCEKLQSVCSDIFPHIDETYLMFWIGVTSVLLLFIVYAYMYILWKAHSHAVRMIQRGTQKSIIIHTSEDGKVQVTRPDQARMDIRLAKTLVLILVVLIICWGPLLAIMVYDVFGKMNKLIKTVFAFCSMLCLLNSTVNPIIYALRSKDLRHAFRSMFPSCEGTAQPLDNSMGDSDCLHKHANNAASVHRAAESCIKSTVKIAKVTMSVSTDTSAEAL
Sequence of Kappa-type opioid receptor (P41145 whole entry): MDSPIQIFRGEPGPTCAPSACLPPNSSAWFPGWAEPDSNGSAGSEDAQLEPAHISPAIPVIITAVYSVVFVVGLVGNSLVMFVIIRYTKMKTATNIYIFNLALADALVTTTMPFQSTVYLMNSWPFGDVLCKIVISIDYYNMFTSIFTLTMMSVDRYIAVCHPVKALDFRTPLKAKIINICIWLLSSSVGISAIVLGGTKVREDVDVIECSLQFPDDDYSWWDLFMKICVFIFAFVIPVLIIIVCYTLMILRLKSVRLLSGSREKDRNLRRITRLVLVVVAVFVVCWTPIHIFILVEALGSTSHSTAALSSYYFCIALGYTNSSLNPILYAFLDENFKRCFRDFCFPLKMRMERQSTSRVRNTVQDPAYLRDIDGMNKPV
Sequence of D(3) dopamine receptor (P35462 whole entry): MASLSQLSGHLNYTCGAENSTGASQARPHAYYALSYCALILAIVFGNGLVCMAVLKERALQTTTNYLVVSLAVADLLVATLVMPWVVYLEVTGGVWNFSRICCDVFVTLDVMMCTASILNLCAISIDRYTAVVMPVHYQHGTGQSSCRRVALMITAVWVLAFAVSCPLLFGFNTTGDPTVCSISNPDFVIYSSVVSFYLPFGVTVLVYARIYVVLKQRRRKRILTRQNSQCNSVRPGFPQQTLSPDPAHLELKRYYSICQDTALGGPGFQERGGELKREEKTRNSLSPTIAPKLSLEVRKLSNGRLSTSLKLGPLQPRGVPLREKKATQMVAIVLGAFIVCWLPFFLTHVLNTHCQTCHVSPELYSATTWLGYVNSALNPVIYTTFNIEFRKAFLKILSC

One may read the AC50 as the concentration giving half of the maximal activity seen. With `O=C1C(O)=C([C@H]2CC[C@H](c3ccc(Cl)cc3)CC2)C(=O)c2ccccc21` [ATOVAQUONE], the half-maximal activity concentration (AC50) in experiment [1], in experiment [2], in [3], in [4], in experiment [5] and in [6] was > 30 µM throughout. Moreover, the concentration at half-maximal activity (AC50) in [7], in [8], in [9], in [10] and in [11] was > 30 µM throughout.

With `COc1ccc(CCNCC(O)COc2cccc(C)c2)cc1OC` (configuration not stated) [BEVANTOLOL], the AC50 in experiment [1] was > 10 µM; in experiment [3], > 30 µM; in [4], > 30 µM; in experiment [5], > 10 µM; in experiment [6], 1.2 µM; in experiment [7] it was 9.4 µM. For the same compound, the concentration at half-maximal activity (AC50) in experiment [8], in experiment [9], in experiment [10] and in experiment [11] was > 10 µM in each case.

As for `Brc1c(NC2=NCCN2)ccc2nccnc12` [BRIMONIDINE], the AC50 in experiment [1] is > 30 µM; in [3], > 30 µM; in experiment [4], > 30 µM; in experiment [5] it was > 30 µM; in [6], 5 µM; in experiment [12] it was > 30 µM. Moreover, the AC50 in experiment [8], in experiment [10] and in experiment [11] was > 30 µM throughout.

Consider `CC(CC1c2ccccc2CCc2ccccc21)CN(C)C` (configuration not stated) [BUTRIPTYLINE], for which the concentration at half-maximal activity (AC50) is > 30 µM in experiment [1]; > 30 µM in [2]; 1.7 µM in [4]; > 30 µM in [12]; 6.9 µM in experiment [7]; > 30 µM in experiment [9].

As to `Clc1ccccc1C(c1ccccc1)(c1ccccc1)n1ccnc1` [CLOTRIMAZOLE], the concentration at half-maximal activity (AC50) in experiment [1] is 0.746 µM; in experiment [2] it was > 10 µM; in experiment [4], > 30 µM; in experiment [6], > 10 µM; in experiment [12], > 30 µM; in [8], > 10 µM.

`COc1ccc2c3c1O[C@H]1[C@@H](O)CC[C@H]4[C@@H](C2)N(C)CC[C@@]341` [DIHYDROCODEINE]: the AC50 in experiment [1], in [2], in [4], in [6], in [12] and in [7] was > 30 µM in each case. In experiment [9], the AC50 was > 30 µM.

Turning to `NC(=O)OCC(COC(N)=O)c1ccccc1` [FELBAMATE], the concentration at half-maximal activity (AC50) in experiment [1], in experiment [2], in [3], in experiment [4], in experiment [5] and in experiment [6] was > 10 µM each time. Further, the AC50 in [7], in experiment [8], in experiment [9], in experiment [10] and in experiment [11] was > 10 µM in each case.

Take `Fc1ccc(C(c2ccccc2)(c2ccccc2F)n2ccnc2)cc1` (configuration not stated) [FLUTRIMAZOLE]: the AC50 was 0.93 µM in experiment [1]; > 10 µM in experiment [3]; > 30 µM in [4]; > 30 µM in [5]; > 30 µM in [6]; > 30 µM in experiment [12]. The AC50 is > 30 µM in experiment [7]; > 30 µM in [8]; > 30 µM in [9]; 15 µM in [10]; > 30 µM in [11].

On to `Cc1cc(C(C)(C)C)c(O)c(C)c1CC1=NCCN1` [OXYMETAZOLINE], for which the AC50 in experiment [4] was 20.1 µM; in [6], 0.0094 µM; in [12], > 30 µM; in experiment [10], > 30 µM.

For `C[C@H]1COc2c(C3(N)CC3)c(F)cc3c(=O)c(C(=O)O)cn1c23` [PAZUFLOXACIN], the AC50 in [1] was > 10 µM; in experiment [2] it was > 10 µM; in experiment [3], > 10 µM; in experiment [4] it was > 30 µM; in [5], > 10 µM; in experiment [6], > 10 µM. Moreover, the AC50 in experiment [7], in experiment [8], in [9], in experiment [10] and in experiment [11] was > 10 µM in each case.

For `CC/C(=C(\c1ccccc1)c1ccc(OCCN(C)C)cc1)c1ccccc1` [TAMOXIFEN], the AC50 in experiment [1] is 8.53 µM; in experiment [2], > 10 µM; in [4] it was 2.9 µM; in experiment [6] it was > 10 µM; in experiment [7], > 10 µM; in experiment [8], > 30 µM. Also, the half-maximal activity concentration (AC50) in experiment [9] was > 10 µM.

On to `Cc1nnc2n1-c1ccc(Cl)cc1C(c1ccccc1Cl)=NC2` [TRIAZOLAM], for which the AC50 in experiment [2] was > 10 µM; in experiment [3], > 30 µM; in [4], > 30 µM; in experiment [5], > 30 µM; in experiment [6] it was > 10 µM; in experiment [12], > 30 µM. In addition, the AC50 in experiment [7] is > 10 µM; in experiment [8] it was > 10 µM; in experiment [9] it was > 10 µM; in [10], > 30 µM; in [11], > 30 µM.

On to `CC1(C)CCC(CN2CCN(c3ccc(C(=O)NS(=O)(=O)c4ccc(NCC5CCOCC5)c([N+](=O)[O-])c4)c(Oc4cnc5[nH]ccc5c4)c3)CC2)=C(c2ccc(Cl)cc2)C1` [VENETOCLAX], for which the AC50 is > 30 µM in experiment [4], 17 µM in [7] and 2.3 µM in experiment [10].
